The text below walks through data of publication PMC2988379 (The Journal of Biological Chemistry, 2010).

Numbering of substitutions follows the chain as printed. Like-named read-outs stand apart in the source and are kept apart here.

Usually Kd stands for the concentration at which binding is half-saturated.

Holding throughout (test): intrinsic Trp fluorescence titration
What all share (assay type): binding

Assay [1] has as its target T1, PimB′ (Corynebacterium glutamicum PimB′, NCgl2106) (Corynebacterium glutamicum, UniProt Q8NNK8).
T1 sequence (Q8NNK8 1-381): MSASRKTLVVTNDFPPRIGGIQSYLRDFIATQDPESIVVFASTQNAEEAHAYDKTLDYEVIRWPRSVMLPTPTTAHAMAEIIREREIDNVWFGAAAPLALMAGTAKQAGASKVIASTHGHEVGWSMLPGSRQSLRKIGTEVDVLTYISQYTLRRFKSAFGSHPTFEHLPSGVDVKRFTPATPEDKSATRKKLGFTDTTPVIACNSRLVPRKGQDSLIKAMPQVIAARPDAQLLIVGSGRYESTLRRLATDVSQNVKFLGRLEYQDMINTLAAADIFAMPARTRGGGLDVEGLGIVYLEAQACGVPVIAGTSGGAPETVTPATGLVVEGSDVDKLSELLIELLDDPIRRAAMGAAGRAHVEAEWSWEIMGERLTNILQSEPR

Assay [2] addresses T1, PimB′ (Corynebacterium glutamicum PimB′, NCgl2106). This is another data set of the same source.
For assay [3], the target named is T2, PimB′ (Corynebacterium glutamicum PimB′, NCgl2106) (Corynebacterium glutamicum, UniProt Q8NNK8, Q22A).
T2 sequence (Q8NNK8 1-381 Q22A): T1 sequence (Q8NNK8 1-381) with Q22A

The target in assay [4] is T3, PimB′ (Corynebacterium glutamicum PimB′, NCgl2106) (Corynebacterium glutamicum, UniProt Q8NNK8, I21A).
T3 sequence (Q8NNK8 1-381 I21A): T1 sequence (Q8NNK8 1-381) with I21A

The target of assay [5] is T4, PimB′ (Corynebacterium glutamicum PimB′, NCgl2106) (Corynebacterium glutamicum, UniProt Q8NNK8, D13A).
T4 sequence (Q8NNK8 1-381 D13A): T1 sequence (Q8NNK8 1-381) with D13A

Assay [6] concerns the target T5, PimB′ (Corynebacterium glutamicum PimB′, NCgl2106) (Corynebacterium glutamicum, UniProt Q8NNK8, R210S).
T5 sequence (Q8NNK8 1-381 R210S): T1 sequence (Q8NNK8 1-381) with R210S

The target in assay [7] is T6, PimB′ (Corynebacterium glutamicum PimB′, NCgl2106) (Corynebacterium glutamicum, UniProt Q8NNK8, S205G).
T6 sequence (Q8NNK8 1-381 S205G): T1 sequence (Q8NNK8 1-381) with S205G

Assay [8] addresses T7, PimB′ (Corynebacterium glutamicum PimB′, NCgl2106) (Corynebacterium glutamicum, UniProt Q8NNK8, R206S).
T7 sequence (Q8NNK8 1-381 R206S): T1 sequence (Q8NNK8 1-381) with R206S

The target of assay [9] is T8, PimB′ (Corynebacterium glutamicum PimB′, NCgl2106) (Corynebacterium glutamicum, UniProt Q8NNK8, G291S).
T8 sequence (Q8NNK8 1-381 G291S): T1 sequence (Q8NNK8 1-381) with G291S

Assay [10] deals with T9, PimB′ (Corynebacterium glutamicum PimB′, NCgl2106) (Corynebacterium glutamicum, UniProt Q8NNK8, H118S).
T9 sequence (Q8NNK8 1-381 H118S): T1 sequence (Q8NNK8 1-381) with H118S

Assay [11] addresses T10, PimB′ (Corynebacterium glutamicum PimB′, NCgl2106) (Corynebacterium glutamicum, UniProt Q8NNK8, D13N).
T10 sequence (Q8NNK8 1-381 D13N): T1 sequence (Q8NNK8 1-381) with D13N

Assay [12] deals with T11, PimB′ (Corynebacterium glutamicum PimB′, NCgl2106) (Corynebacterium glutamicum, UniProt Q8NNK8, G20W).
T11 sequence (Q8NNK8 1-381 G20W): T1 sequence (Q8NNK8 1-381) with G20W

In assay [1], `Nc1nc2c(ncn2[C@@H]2O[C@H](COP(=O)(O)OP(=O)(O)O)[C@@H](O)[C@H]2O)c(=O)[nH]1` [GDP] came in with a Kd of 36.5 ± 6.9 µM.

Take `Nc1nc2c(ncn2[C@@H]2O[C@H](COP(=O)(O)OP(=O)(O)O[C@H]3O[C@H](CO)[C@@H](O)[C@H](O)[C@@H]3O)[C@@H](O)[C@H]2O)c(=O)[nH]1` [GDP-Man]: the Kd amounted to 19 ± 4.6 µM in assay [2]; 60.3 ± 22.8 µM in [3]; 56 ± 14.5 µM in assay [4]; 42.8 ± 11.9 µM in assay [5]; 40.2 ± 10.7 µM in assay [6]; 18.7 ± 4.6 µM in [7]. Also, the Kd in [8] was determined as 42.7 ± 9.4 µM; in assay [9], 68.7 ± 35.5 µM; in [10], 72.4 ± 27.5 µM; in assay [11], 30.1 ± 6.9 µM; in [12] it was 21.9 ± 6.4 µM.
